# Measurements published in patent US6740664B2, “Methods for treating otic and ophthalmic infections” (Alcon, Inc., priority 1998, dated 2004).
# Where two headings read alike, the source gives them in different places.
# How the values were obtained:
# Microbacterium alconae = assay: In vitro MIC by agar and broth dilution methods (NCCLS M7-A4), clinical isolates; assay type: cell-based
# Description: (§1) The activity levels were determined as MIC (minimum inhibitory concentration) values. In order to compare the activity of the compounds of the present invention to other antibiotics, MIC values for representatives quinolones, aminoglycosides, β-lactams and other types of antibiotics were also determined. […] The MCC numbers (e.g., “MCC 10647”) represent separate clinical isolates of the two Microbacterium species tested.
# Microbacterium otitidis = assay: as above; assay type: cell-based
# Description: as §1
# M. alconae = assay: MIC90 against bacteria associated with otic, ophthalmic and nasal infections; assay type: cell-based, Microbacterium alconae
# Excerpt: (§2) The concentrations of the antibiotics of formula (I) in the compositions of the present invention will vary depending on the intended use of the compositions (e.g., treatment of existing infections or prevention of post-surgical infections), and the relative antimicrobial activity of the specific antibiotic selected. The antimicrobial activity of antibiotics is generally expressed as the minimum concentration required to inhibit the growth of a specified pathogen. This concentration is also referred to as the “minimum inhibitory concentration” or “MIC”. The term “MIC90” refers to the minimum concentration of antibiotic required to inhibit the growth of ninety percent (90%) of the strains of a species. The concentration of an antibiotic required to totally kill a specified bacteria is referred to as the “minimum bactericidal concentration” or “MBC”.
# [1] = system: S. aureus/methicillin sensitive; assay: as above; assay type: cell-based
# Excerpt: as §2
# [2] = system: S. epidermidis/methicillin resistant; assay: as above; assay type: cell-based
# Excerpt: as §2
# [3] = system: S. aureus/methicillin resistant; assay: as above; assay type: cell-based
# Excerpt: as §2
# [4] = system: H. influenzae/β-lactamase positive; assay: as above; assay type: cell-based
# Excerpt: as §2
# [5] = system: S. pneumoniae/penicillin resistant; assay: as above; assay type: cell-based
# Excerpt: as §2
# [6] = system: S. pneumoniae/penicillin sensitive; assay: as above; assay type: cell-based
# Excerpt: as §2
# P. aeruginosa = assay: as above; assay type: cell-based
# Excerpt: as §2
# [7] = system: S. epidermidis/methicillin sensitive; assay: as above; assay type: cell-based
# Excerpt: as §2
# [8] = system: S. aureus/quinolone resistant; assay: as above; assay type: cell-based
# Excerpt: as §2
# [9] = system: H influenzae/β-lactamase negative; assay: as above; assay type: cell-based
# Excerpt: as §2
# M. otitidis = assay: as above; assay type: cell-based, Microbacterium otitidis
# Excerpt: as §2
# [10] = Microbacterium alconae clinical isolate MCC 11316
# [11] = Microbacterium alconae clinical isolate MCC 11558
# [12] = Microbacterium alconae clinical isolate MCC 11639
# [13] = Microbacterium alconae clinical isolate MCC 11653
# [14] = Microbacterium alconae clinical isolate MCC 11699
# [15] = Microbacterium otitidis clinical isolate MCC 10647
# [16] = Microbacterium otitidis clinical isolate MCC 10810
# [17] = Microbacterium otitidis clinical isolate MCC 10990
# [18] = Microbacterium otitidis clinical isolate MCC 11495
# [19] = Microbacterium otitidis clinical isolate MCC 11676
# [20] = Staphylococcus aureus, read-out: MIC90
# [21] = Staphylococcus epidermidis, read-out: MIC90
# [22] = Haemophilus influenzae, read-out: MIC90
# [23] = Streptococcus pneumoniae, read-out: MIC90
# [24] = Pseudomonas aeruginosa, read-out: MIC90
molecule,measurement,setting,value
Neomycin,minimum inhibitory concentration (MIC),Microbacterium alconae; [10],1.0 micrograms per milliliter
same,minimum inhibitory concentration (MIC),Microbacterium alconae; [11],1.0 micrograms per milliliter
same,minimum inhibitory concentration (MIC),Microbacterium alconae; [12],1.0 micrograms per milliliter
same,minimum inhibitory concentration (MIC),Microbacterium alconae; [13],1.0 micrograms per milliliter
same,minimum inhibitory concentration (MIC),Microbacterium alconae; [14],1.0 micrograms per milliliter
same,minimum inhibitory concentration (MIC),Microbacterium otitidis; [15],8.0 micrograms per milliliter
same,minimum inhibitory concentration (MIC),Microbacterium otitidis; [16],2.0 micrograms per milliliter
same,minimum inhibitory concentration (MIC),Microbacterium otitidis; [17],2.0 micrograms per milliliter
same,minimum inhibitory concentration (MIC),Microbacterium otitidis; [18],8.0 micrograms per milliliter
same,minimum inhibitory concentration (MIC),Microbacterium otitidis; [19],2.0 micrograms per milliliter
Polymyxin B,minimum inhibitory concentration (MIC),Microbacterium alconae; [12],16 micrograms per milliliter
same,minimum inhibitory concentration (MIC),Microbacterium alconae; [13],16 micrograms per milliliter
same,minimum inhibitory concentration (MIC),Microbacterium alconae; [14],16 micrograms per milliliter
same,minimum inhibitory concentration (MIC),Microbacterium otitidis; [16],260 micrograms per milliliter
same,minimum inhibitory concentration (MIC),Microbacterium otitidis; [17],260 micrograms per milliliter
same,minimum inhibitory concentration (MIC),Microbacterium otitidis; [19],16 micrograms per milliliter
Moxifloxacin,MIC90,M. alconae,0.25 micrograms per milliliter
same,MIC90,[1],0.13 micrograms per milliliter
same,MIC90,[2],4.0 micrograms per milliliter
same,MIC90,[3],4.0 micrograms per milliliter
same,MIC90,[4],0.06 micrograms per milliliter
same,MIC90,[5],0.25 micrograms per milliliter
same,MIC90,[6],0.25 micrograms per milliliter
same,MIC90,P. aeruginosa,8.0 micrograms per milliliter
same,MIC90,[7],0.25 micrograms per milliliter
same,MIC90,[8],4.0 micrograms per milliliter
same,MIC90,[9],0.06 micrograms per milliliter
same,MIC90,M. otitidis,2.0 micrograms per milliliter
Grepafloxacin,MIC90,[1],0.13 micrograms per milliliter
same,MIC90,[2],0.13 micrograms per milliliter
same,MIC90,[3],0.13 micrograms per milliliter
same,MIC90,[4],0.008 micrograms per milliliter
same,MIC90,[5],0.25 micrograms per milliliter
same,MIC90,[6],0.25 micrograms per milliliter
same,MIC90,P. aeruginosa,8.0 micrograms per milliliter
same,MIC90,[7],0.13 micrograms per milliliter
same,MIC90,[8],0.13 micrograms per milliliter
same,MIC90,[9],0.008 micrograms per milliliter
N[C@@H]1[C@H]2CN(c3nc4c(cc3F)c(=O)c(C(=O)O)cn4-c3ccc(F)cc3F)C[C@@H]12 [Trovafloxacin],MIC90,[1]; [20],0.03 µg/mL
same,MIC90,[2]; [21],4 µg/mL
same,MIC90,[3]; [20],2 µg/mL
same,MIC90,[4]; [22],0.03 µg/mL
same,MIC90,[5]; [23],0.25 µg/mL
same,MIC90,[6]; [23],0.25 µg/mL
same,MIC90,P. aeruginosa; [24],2 µg/mL
same,MIC90,[7]; [21],0.06 µg/mL
same,MIC90,[8]; [20],4 µg/mL
same,MIC90,[9]; [22],0.03 µg/mL
COc1c(N2CCNC(C)C2)c(F)cc2c(=O)c(C(=O)O)cn(C3CC3)c12 (centres unmarked) [Gatifloxacin],MIC90,[1]; [20],0.25 µg/mL
same,MIC90,[2]; [21],4 µg/mL
same,MIC90,[3]; [20],8 µg/mL
same,MIC90,[4]; [22],0.06 µg/mL
same,MIC90,[5]; [23],0.25 µg/mL
same,MIC90,[6]; [23],0.25 µg/mL
same,MIC90,P. aeruginosa; [24],2 µg/mL
same,MIC90,[7]; [21],0.5 µg/mL
same,MIC90,[8]; [20],8 µg/mL
same,MIC90,[9]; [22],0.06 µg/mL
Gentamicin,minimum inhibitory concentration (MIC),Microbacterium alconae; [10],2.0 micrograms per milliliter
same,minimum inhibitory concentration (MIC),Microbacterium alconae; [11],2.0 micrograms per milliliter
same,minimum inhibitory concentration (MIC),Microbacterium alconae; [12],2.0 micrograms per milliliter
same,minimum inhibitory concentration (MIC),Microbacterium alconae; [13],2.0 micrograms per milliliter
same,minimum inhibitory concentration (MIC),Microbacterium alconae; [14],2.0 micrograms per milliliter
same,minimum inhibitory concentration (MIC),Microbacterium otitidis; [15],8.0 micrograms per milliliter
same,minimum inhibitory concentration (MIC),Microbacterium otitidis; [16],4.0 micrograms per milliliter
same,minimum inhibitory concentration (MIC),Microbacterium otitidis; [17],4.0 micrograms per milliliter
same,minimum inhibitory concentration (MIC),Microbacterium otitidis; [18],16 micrograms per milliliter
same,minimum inhibitory concentration (MIC),Microbacterium otitidis; [19],4.0 micrograms per milliliter
